Laboratory results: patent US20240268419A1, “IgA PRODUCTION PROMOTING AGENT AND FEED COMPOSITION FOR PROMOTING IgA PRODUCTION” (Nippon Beet Sugar Manufacturing Co., Ltd., priority 2022, published 2024)

Tested on: IgA production in the intestinal tract
Test: IgA concentration in feces of suckling calves fed DFAIII (ELISA)
Format: in vivo, Holstein calves
Details: for IgA Concentration (mg/g feces): mean ± standard deviation
Text: Twelve head of Holstein calves in suckling period as test subjects were divided into a control group (7 head) and a DFAIII feeding group (5 head). Colostrum was fed to the calves up to 6 days old after birth. In the DFAIII feeding group, 6 g each of difructose anhydride III (DFAIII) (manufactured by Nippon Beet Sugar Manufacturing Co., Ltd.; product name: Koushi no Mikata) was mixed with the colostrum and fed to the calves in the first and second colostrum feeding after birth (at 0 to 1 day old). From 7 days old, the 7 head of calves in suckling period in the control group were fed with a starter, which is a mixed feed for calf in suckling period (manufactured by Nippon Beet Sugar Manufacturing Co., Ltd.; product name: Start; component contents: protein 22%, total digestible nutrients 74%), and the 5 head of calves in suckling period in the DFAIII feeding group were fed with a feed (DFAIII-containing feed) in which DFAIII (manufactured by Nippon Beet Sugar Manufacturing Co., Ltd.) was added in an amount of 2.0 wt % to and mixed with the starter, by free feeding together with hay and water. The amount 2.0 wt % of DFAIII in the DFAIII-containing feed is calculated as the weight proportion (w/w %) of DFAIII relative to the total weight of the starter and DFAIII. From seven days old, 2 L of 15% milk substitute solution (without DFAIII) was further fed to the calves in suckling period twice a day.
Fresh feces were collected from the calves of each test group at 7 days old, 14 days old, 21 days old, and 28 days old. The IgA concentrations in feces were measured by the ELISA method using an IgA ELISA Quantitation Kit (manufactured by BETHYL Laboratories, Inc.). The IgA concentration in feces was expressed in a milligram amount of IgA per wet mass of the feces.

OC[C@H]1O[C@@]2(CO[C@]3(CO)O[C@H](CO)[C@@H](O)[C@@H]3O2)[C@@H](O)[C@@H]1O [DFAIII, di-D-fructofuranose 1, 2:2,3′ dianhydride]
IgA Concentration (mg/g feces) (7 days old, Holstein calves in suckling period, 6 g DFAIII in first and second colostrum feeding): 0.65 ± 0.32 mg/g feces | IgA Concentration (mg/g feces) (14 days old, 6 g DFAIII in colostrum x2, then starter with 2.0 wt % DFAIII from 7 days old, free feeding): 1.19 ± 0.45 mg/g feces | IgA Concentration (mg/g feces) (21 days old, 6 g DFAIII in colostrum x2, then starter with 2.0 wt % DFAIII from 7 days old, free feeding): 2.60 ± 1.01 mg/g feces | IgA Concentration (mg/g feces) (28 days old, 6 g DFAIII in colostrum x2, then starter with 2.0 wt % DFAIII from 7 days old, free feeding): 1.01 ± 1.34 mg/g feces | IgA concentrations in feces in comparison with the control group (DFAIII feeding group vs control group, Holstein calves in suckling period): statistically significantly higher
